One experiment relates to GH7 CBHs. Also on record: method as in PMID 18512263. Particulars: MUL as substrate of the GH7 CBHs; cited from earlier work.
The target in the next experiment is CtCel6A (Chaetomium thermophilum, UniProt G0SD43). The experiment can be described thus: Inhibition of hydrolysis of 14C-BMCC by CtCel6A. The experiment is classed as biochemical. Particulars: CtCel6A, 14C-BMCC, 50°C. The source says: (§1) Here, we characterized the cellobiose and glucose inhibition of TrCel6A and its thermophilic counterpart, CtCel6A [9, 63]. First, the cellobiose inhibition of the synergistic hydrolysis of ^14C-BC by TrCel6A and TrCel5A was studied (Figure 7A). As TrCel6A was less sensitive to cellobiose inhibition than TrCel7A, the contribution of the cellobiose released during hydrolysis was not significant, and an average (DCB/DCB=0) over all time points was used in plotting (DCB/DCB=0) versus [cellobiose] (Figure 7D). No significant systematic variation of DCB/DCB=0 depending on hydrolysis time was observed. As in the case of GH7 CBHs, the IC50 value was found using Equations 5 and 6. Because the IC50 value for synergistic hydrolysis (Table 3) was of the same order as the apparent Ki value reported for TrCel5A [31], we further tested the inhibition of individual TrCel6A. BC is not a good substrate for TrCel6A, but its acid-treated derivative, BMCC, is readily degraded by the enzyme. Therefore, we prepared ^14C-BMCC by the heterogeneous acid hydrolysis of ^14C-BC. […]
Chain of CtCel6A (G0SD43 entry or part of it): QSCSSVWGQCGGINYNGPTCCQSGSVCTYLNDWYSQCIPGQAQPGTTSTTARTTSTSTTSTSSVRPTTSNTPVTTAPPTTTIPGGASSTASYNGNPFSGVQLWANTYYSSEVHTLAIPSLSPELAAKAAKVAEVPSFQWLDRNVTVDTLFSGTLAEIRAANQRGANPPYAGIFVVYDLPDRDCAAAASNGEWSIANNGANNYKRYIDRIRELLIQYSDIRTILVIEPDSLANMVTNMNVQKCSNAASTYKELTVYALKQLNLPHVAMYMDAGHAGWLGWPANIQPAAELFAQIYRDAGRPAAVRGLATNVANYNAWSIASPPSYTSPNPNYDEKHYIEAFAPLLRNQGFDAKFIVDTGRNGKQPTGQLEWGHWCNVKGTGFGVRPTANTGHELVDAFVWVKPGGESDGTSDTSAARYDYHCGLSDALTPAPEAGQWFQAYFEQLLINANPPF
(§2) GH6 CBHs were assessed by observing the hydrolysis of ^14C-BMCC. ^14C-BMCC (0.25 g l^-1) was incubated (with shaking at 350 rpm) with CBH (0.25 μM) and N188BG (0.06 μM) in 50 mM sodium acetate buffer, pH 5.0, containing BSA (0.1 g l^-1). […]

The next experiment has as its target T1, TrCel6A (Trichoderma reesei, UniProt P07987).
T1 construct: TrCel6A was purified from the culture filtrate of Tr QM 9414 as described previously; made in house; host or cells: Trichoderma reesei QM 9414 culture filtrate (native producer)
The experiment can be described thus: Inhibition of hydrolysis of 14C-BMCC by TrCel6A. The conditions noted are these: TrCel6A, 14C-BMCC, 50°C. The experiment is classed as biochemical.
Text: as §1, §2

A further experiment deals with T2, TrCel5A (Trichoderma reesei, UniProt P07982).
T2 construct: TrCel7B, TrCel5A, and TrCel12A were purified from the culture filtrate of Tr QM 9414; made in house; host or cells: Trichoderma reesei QM 9414 culture filtrate (native producer)
T2 sequence (P07982 22-418): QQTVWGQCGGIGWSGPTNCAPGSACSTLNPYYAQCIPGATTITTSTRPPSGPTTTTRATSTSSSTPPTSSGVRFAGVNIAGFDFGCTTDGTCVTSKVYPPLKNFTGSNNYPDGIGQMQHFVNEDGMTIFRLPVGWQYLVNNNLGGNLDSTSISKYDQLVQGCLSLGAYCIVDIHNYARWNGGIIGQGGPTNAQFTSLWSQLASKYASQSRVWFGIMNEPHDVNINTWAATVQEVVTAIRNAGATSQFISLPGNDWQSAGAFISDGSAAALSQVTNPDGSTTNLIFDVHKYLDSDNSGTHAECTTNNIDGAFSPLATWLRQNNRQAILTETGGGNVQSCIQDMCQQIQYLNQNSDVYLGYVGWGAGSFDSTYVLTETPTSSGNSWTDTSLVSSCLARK
Set-up: method as in PMID 23410927. The conditions noted are these: cited from earlier work.

What is called Km is the substrate concentration at which the rate is half of its maximum.

Molecules are shown by their SMILES.

T1 sequence (P07987 25-471): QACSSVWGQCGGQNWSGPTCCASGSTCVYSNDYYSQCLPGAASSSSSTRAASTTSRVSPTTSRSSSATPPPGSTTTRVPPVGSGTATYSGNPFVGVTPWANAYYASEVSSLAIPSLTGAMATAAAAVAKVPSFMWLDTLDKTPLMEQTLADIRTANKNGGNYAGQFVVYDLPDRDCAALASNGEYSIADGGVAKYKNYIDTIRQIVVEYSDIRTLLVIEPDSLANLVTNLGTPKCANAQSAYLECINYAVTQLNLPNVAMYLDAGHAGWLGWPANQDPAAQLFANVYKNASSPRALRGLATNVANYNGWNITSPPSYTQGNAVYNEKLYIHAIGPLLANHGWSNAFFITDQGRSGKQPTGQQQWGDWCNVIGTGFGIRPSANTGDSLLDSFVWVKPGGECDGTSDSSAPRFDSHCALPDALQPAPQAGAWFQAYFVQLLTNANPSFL

In the case of `Cc1cc(=O)oc2cc(O[C@@H]3O[C@H](CO)[C@@H](O[C@@H]4O[C@H](CO)[C@H](O)[C@H](O)[C@H]4O)[C@H](O)[C@H]3O)ccc12` [MUL, 4-methylumbelliferyl-β-lactoside], the Km with GH7 CBHs was about 300 µM.

Consider `OC[C@H]1OC(O)[C@H](O)[C@@H](O)[C@@H]1O` (stereo partly shown) [glucose, Glucose], for which the “times weaker inhibitor than cellobiose” value at CtCel6A and on TrCel6A was “approximately 10 times” each time. For the same molecule, the inhibition by glucose result on TrCel5A is given as “not significantly inhibited”.
